Data from ChEMBL document CHEMBL1130549, “Dihydroisoquinolone RGD mimics. Exploration of the aspartate isostere” (Bioorg Med Chem Lett, 1997).
Positions of bridges follow the written chain, without caps; N, C: chain ends. Non-standard residues stand in square brackets, D forms with d. Residues, ends and D or L forms follow the SMILES beside them. Pen = CC(C)(S)[C@H](N)C(=O)O; Mpa = O=C(O)CCS

How the values were obtained:
Assay type in all cases: protein-complex assay
[1] = target: T1, Integrin alpha-IIb/beta-3 (Homo sapiens, UniProt P05106+P08514); assay: Inhibition of fibrinogen binding to purified human alpha IIb beta-3 integrin by 50% in an ELISA test
[2] = target: T1, Integrin alpha-IIb/beta-3; assay: Inhibition of fibrinogen binding to purified Human alphaIIb-beta3 integrin in ELISA with 1% bovine serum albumin (BSA)
[3] = target: T1, Integrin alpha-IIb/beta-3; assay: Inhibition of fibrinogen binding to purified Human alphaIIb-beta3 integrin in ELISA with 0.1% bovine serum albumin (BSA)
[4] = target: T1, Integrin alpha-IIb/beta-3; assay: Inhibition of fibrinogen binding to purified Human alphaIIb-beta3 integrin in ELISA with 4.5% bovine serum albumin (BSA)

T1 sequence (P05106 27-788 limits assumed): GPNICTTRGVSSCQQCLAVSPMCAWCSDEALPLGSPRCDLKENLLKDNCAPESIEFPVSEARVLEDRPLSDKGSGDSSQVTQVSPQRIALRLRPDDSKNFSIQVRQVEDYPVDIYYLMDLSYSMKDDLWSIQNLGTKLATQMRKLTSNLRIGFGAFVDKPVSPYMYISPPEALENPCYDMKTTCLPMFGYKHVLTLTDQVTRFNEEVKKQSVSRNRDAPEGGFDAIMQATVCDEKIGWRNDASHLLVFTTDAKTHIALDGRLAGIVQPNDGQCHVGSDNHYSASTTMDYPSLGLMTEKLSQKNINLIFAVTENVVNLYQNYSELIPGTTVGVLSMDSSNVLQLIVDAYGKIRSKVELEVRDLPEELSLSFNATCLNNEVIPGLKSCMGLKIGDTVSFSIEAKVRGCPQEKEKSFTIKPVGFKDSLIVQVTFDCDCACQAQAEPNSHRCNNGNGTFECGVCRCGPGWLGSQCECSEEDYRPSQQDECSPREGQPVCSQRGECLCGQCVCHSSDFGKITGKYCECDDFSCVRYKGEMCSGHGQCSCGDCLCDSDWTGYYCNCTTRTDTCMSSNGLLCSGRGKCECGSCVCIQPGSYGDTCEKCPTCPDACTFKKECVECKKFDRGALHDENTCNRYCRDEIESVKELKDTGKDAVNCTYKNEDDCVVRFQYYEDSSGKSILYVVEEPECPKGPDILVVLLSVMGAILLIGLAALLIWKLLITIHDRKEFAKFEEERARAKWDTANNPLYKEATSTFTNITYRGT
T1 sequence (P08514 32-887 limits assumed): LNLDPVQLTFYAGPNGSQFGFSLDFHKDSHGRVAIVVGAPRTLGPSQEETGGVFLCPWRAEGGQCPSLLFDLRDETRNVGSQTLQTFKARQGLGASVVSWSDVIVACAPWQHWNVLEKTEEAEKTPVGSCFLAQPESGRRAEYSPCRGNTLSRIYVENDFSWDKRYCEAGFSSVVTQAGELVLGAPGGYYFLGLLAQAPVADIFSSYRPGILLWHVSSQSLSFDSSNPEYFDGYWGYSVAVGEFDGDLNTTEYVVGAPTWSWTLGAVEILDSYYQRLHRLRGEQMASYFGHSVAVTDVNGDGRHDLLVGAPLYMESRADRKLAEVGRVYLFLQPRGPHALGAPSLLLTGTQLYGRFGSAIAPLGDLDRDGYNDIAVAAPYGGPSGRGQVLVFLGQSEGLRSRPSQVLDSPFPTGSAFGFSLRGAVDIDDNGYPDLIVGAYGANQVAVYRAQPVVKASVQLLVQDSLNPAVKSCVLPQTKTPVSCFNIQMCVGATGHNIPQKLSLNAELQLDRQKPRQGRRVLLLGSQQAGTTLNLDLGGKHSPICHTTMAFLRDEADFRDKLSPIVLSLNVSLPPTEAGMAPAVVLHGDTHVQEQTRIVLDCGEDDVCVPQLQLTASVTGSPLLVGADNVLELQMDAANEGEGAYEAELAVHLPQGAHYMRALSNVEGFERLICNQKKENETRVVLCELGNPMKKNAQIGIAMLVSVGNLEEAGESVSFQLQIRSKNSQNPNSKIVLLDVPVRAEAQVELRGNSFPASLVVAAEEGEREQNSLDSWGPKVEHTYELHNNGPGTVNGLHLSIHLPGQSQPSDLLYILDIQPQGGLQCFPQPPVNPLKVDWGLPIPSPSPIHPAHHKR
T1 sequence (P08514 891-1039 limits assumed): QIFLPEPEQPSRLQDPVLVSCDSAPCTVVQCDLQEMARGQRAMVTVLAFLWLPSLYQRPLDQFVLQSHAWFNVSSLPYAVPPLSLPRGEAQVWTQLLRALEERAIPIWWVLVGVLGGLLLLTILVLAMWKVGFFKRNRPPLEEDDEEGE

Structure (SMILES) | IC50 [1] | IC50 [2] | IC50 [3] | IC50 [4]
N=C(N)c1ccc(C(=O)Nc2ccc3c(c2)CCN(CC(=O)O)C3=O)cc1 | 3 nM |  |  | 
CCCC(CC(=O)O)N1CCc2cc(OCc3ccc(C(=N)N)cc3)ccc2C1=O (stereo not drawn) | 47 nM |  |  | 
COCCCC(CC(=O)O)N1CCc2cc(OCc3ccc(C(=N)N)cc3)ccc2C1=O (stereo not drawn) | 56 nM |  |  | 
CCCCCCC(CC(=O)O)N1CCc2cc(OCc3ccc(C(=N)N)cc3)ccc2C1=O (stereo not drawn) | 41 nM | 80 nM | 41 nM | 310 nM
COC(=O)c1ccc(C(CC(=O)O)N2CCc3cc(OCc4ccc(C(=N)N)cc4)ccc3C2=O)cc1 (stereo not drawn) | 6 nM |  |  | 
CCOCCCC(CC(=O)O)N1CCc2cc(OCc3ccc(C(=N)N)cc3)ccc2C1=O (stereo not drawn) |  | 73 nM | 61 nM | 100 nM
CC1(C)SSCCC(=O)N[C@@H](CCCNC(=N)N)C(=O)NCC(=O)N[C@@H](CC(=O)O)C(=O)N[C@@H](Cc2c[nH]c3ccccc23)C(=O)N2CCC[C@H]2C(=O)N[C@@H]1C(N)=O ([Mpa]RGDWP[Pen]-NH2; disulfide 1-7) | 100 nM |  |  | 

Second part, the molecule after the results:

IC50 [1] | IC50 [2] | IC50 [3] | IC50 [4] | Structure (SMILES)
1700 nM |  |  |  | CCCC(C(=O)O)N1CCc2cc(OCc3ccc(C(=N)N)cc3)ccc2C1=O (stereo not drawn)
8 nM |  |  |  | COc1ccc(C(CC(=O)O)N2CCc3cc(OCc4ccc(C(=N)N)cc4)ccc3C2=O)cc1 (stereo not drawn)
 | 40 nM | 24 nM | 100 nM | CCCCCC(CC(=O)O)N1CCc2cc(OCc3ccc(C(=N)N)cc3)ccc2C1=O (stereo not drawn)
320 nM |  |  |  | N=C(N)c1ccc(COc2ccc3c(c2)CCN(CCC(=O)O)C3=O)cc1
46 nM |  |  |  | CCC(CC(=O)O)N1CCc2cc(OCc3ccc(C(=N)N)cc3)ccc2C1=O (stereo not drawn)
1800 nM |  |  |  | CCCC(CN1CCc2cc(OCc3ccc(C(=N)N)cc3)ccc2C1=O)C(=O)O (stereo not drawn)
40 nM |  |  |  | CCCCC(CC(=O)O)N1CCc2cc(OCc3ccc(C(=N)N)cc3)ccc2C1=O (stereo not drawn)
90 nM |  |  |  | COCCOCC(CC(=O)O)N1CCc2cc(OCc3ccc(C(=N)N)cc3)ccc2C1=O (stereo not drawn)
7 nM |  |  |  | N=C(N)c1ccc(COc2ccc3c(c2)CCN(C(CC(=O)O)c2ccccc2)C3=O)cc1 (stereo not drawn)
